In PMC3454511 (The Journal of organic chemistry, 2012):
Values after ≈ are worked out from the molar mass of the structure shown.

What was measured:
[1] = system: Caco-2 monolayer; experiment: Bidirectional Caco-2 permeability; assay type: in vitro ADME
[2] = Solubility in PBS and H2O, dry powder, 24 hour timepoint
[3] = Plasma stability, mouse; conditions: % parent remaining at 5 h
[4] = Microsomal stability, mouse; conditions: % parent remaining at 1 hour
[5] = Plasma protein binding by rapid-equilibrium dialysis, human; conditions: 37 °C for 5 h
[6] = BBB parallel artificial membrane permeability assay; assay type: in vitro ADME; conditions: for Papp: PAMPA
[7] = Plasma protein binding by rapid-equilibrium dialysis, mouse; conditions: 37 °C for 5 h
[8] = Microsomal stability, human; conditions: % parent remaining at 1 hour
[9] = Plasma stability, human; conditions: % parent remaining at 5 h
[10] = Bidirectional Caco-2 permeability; assay type: in vitro ADME; conditions: human, Caco-2
[11] = physchem; conditions: thermodynamic from solid

Row | Structure (SMILES) | Caco-2 A-B ([1]; A-B direction) | Caco-2 B-A ([1]; B-A direction) | solubility H2O ([2]; H2O) [µM] | solubility PBS ([2]; PBS) [µM] | plasma stability mouse [3] [% remaining] | microsomal stability mouse [4] [% remaining] | protein binding human [5] [% bound] | BBB PAMPA ([6]; Pe) | protein binding mouse [7] [% bound] | microsomal stability human [8] [% remaining] | plasma stability human [9] [% remaining] | Papp A→B [10] [×10⁻⁶ cm/s] | Papp B→A [10] [×10⁻⁶ cm/s] | Papp [6] [×10⁻⁶ cm/s] | solubility at 24 h ([11]; PBS, aqueous buffer) [µM] | solubility at 24 h ([11]; water) [µM]
1 | CCCN1C(CO)C2c3ccccc3NCC21 (racemic) [31a, ((±)-2-Propyl-1,2,2a,3,4,8b-hexahydroazeto[2,3-c]quinolin-1-yl) methanol] | 43 10^−6 cm.s^−1 | 29 10^−6 cm.s^−1 | 495 (≈ 115 µg/mL) | >500 | 108 | 94 | 10 | 31 10^−6 cm s^−1 | 22 | 85 | 97 |  |  |  |  | 
2 | CCCN1C2CNCC1C2c1ccccc1 (stereo not drawn) [27a, 7-Phenyl-6-propyl-3,6-diazabicyclo[3.1.1]heptane] |  |  |  |  | 103 | 79 | 49 |  | 35 | 94 | 102 | 30 | 22 | 4 | > 500 | > 500
3 | CCCN1C2CN(Cc3ccc(F)cc3)CC1C2c1ccccc1 (stereo not drawn) [27d, 3-(4-Fluorobenzyl)-7-phenyl-6-propyl-3,6-diazabicyclo[3.1.1]heptane] |  |  |  |  | 90 | 42 | 98 |  | 98 | 55 | 71 | 14 | 7 | 111 | 335 (≈ 109 µg/mL) | 346 (≈ 112 µg/mL)
4 | CN1CC(=O)N2[C@H](CO)[C@H](c3ccccc3)[C@@H]2C1 [28a, (6R,7R,8S)-8-(Hydroxymethyl)-4-methyl-7-phenyl-1,4-diazabicyclo[4.2.0]octan-2-one] |  |  |  |  | 116 | 104 |  |  |  | 112 | 99 | 43 | 31 |  | > 500 | 
5 | O=C1CNC[C@H]2[C@@H](c3ccccc3)[C@@H](COC(c3ccccc3)(c3ccccc3)c3ccccc3)N12 [28b, (6R,7R,8S)-7-Phenyl-8-((trityloxy)methyl)-1,4-diazabicyclo[4.2.0]octan-2-one] |  |  |  |  |  |  |  |  |  |  |  | 12 | 17 |  | > 500 | 
6 | CS(=O)(=O)N1CC(=O)N2[C@H](CO)[C@H](c3ccccc3)[C@@H]2C1 [28c, (6R,7R,8S)-8-(Hydroxymethyl)-4-(methylsulfonyl)-7-phenyl-1,4-diazabicyclo [4.2.0] octan-2-one] |  |  |  |  | 106 | 100 | −4.6 |  | −2.3 | 104 | 78 | 17 | 20 |  | > 500 | 
7 | OC[C@@H]1[C@H](c2ccccc2)[C@@H]2CNCCCCN12 [29b, ((8R,9R,10S)-9-Phenyl-1,6-diazabicyclo[6.2.0]decan-10-yl)methanol] |  |  |  |  | 94 | 89 | 8 |  | 9 | 86 | 99 | 2 | 8 | 6 | > 500 | 491 (≈ 121 µg/mL)
8 | CN1CCCCN2[C@H](CO)[C@H](c3ccccc3)[C@@H]2C1 [29c, ((8R,9R,10S)-6-Methyl-9-phenyl-1,6-diazabicyclo[6.2.0]decan-10-yl) methanol] |  |  |  |  | 78 | 97 | 1 |  | 5 | 96 | 82 | 14 | 21 | 9 | 494 (≈ 129 µg/mL) | > 500
9 | CCCN1[C@H](CO)[C@H](c2ccccc2)C12CNC2 [30a, (2S,3S)-1-Propyl-2-hydroxymethyl-3-phenyl-1,6-diazaspiro[3.3]heptane] |  |  |  |  | 108 | 93 |  |  |  | 95 | 106 | 3 | 12 |  | > 500 | 
10 | CCCN1[C@H](CO)[C@H](c2ccccc2)C12CN(C)C2 [30b, (2S,3S)-1-Propyl-2-hydroxymethyl-3-phenyl-6-methyl-1,6-diazaspiro[3.3]heptane] |  |  |  |  | 106 | 98 | 28 |  | −6.0 | 99 | 86 | 33 | 56 |  | > 500 | 
11 | CCCN1[C@H](CO)[C@H](c2ccccc2)C12CN(C(C)=O)C2 [30c, (2S,3S)-1-Propyl-2-hydroxymethyl-3-phenyl-6-acetyl-1,6-diazaspiro[3.3]heptane] |  |  |  |  | 97 | 89 | 37 |  | 32 | 94 | 93 | 29 | 35 |  | > 500 | 
12 | CCCN1[C@@H]2COc3ccccc3[C@@H]2[C@@H]1CNC(=O)c1ccccc1 [32a, N-(((1R,2aS,8bR)-2-Propyl-2,2a,3,8b-tetrahydro-1H-chromeno[3,4-b]azet-1-yl)methyl) benzamide] |  |  |  |  | 102 | 0 | 95 |  | 91 | 0 | 94 | 59 | 52 |  | 43 (≈ 14.5 µg/mL) | 
13 | CCCN1[C@@H]2COc3ccccc3[C@@H]2[C@@H]1CNS(C)(=O)=O [32b, N-(((1R,2aS,8bR)-2-Propyl-2,2a,3,8b-tetrahydro-1H-chromeno[3,4-b]azet-1-yl)methyl) methanesulfonamide] |  |  |  |  | 105 | 63 | 37 |  | 37 | 73 | 97 | 66 | 57 |  | 453 (≈ 141 µg/mL) | 
